Laboratory results as given in patent publication US20220265845A1, “AMINOTHIOLESTER COMPOUNDS AND USES THEREOF” (ADVANCED BIODESIGN, priority 2019, published 2022).

System: HL-60
Assay: Cell viability assay (Resazurin), cytotoxicity in HL60 cells
Assay type: cell-based
Conditions: Homo sapiens, HL-60, read-out: IC50 at 48 h, 48 hours of incubation
Experimental: Cell lines. Leukemic cell line, HL-60 (derived from a person with AML-M2), was used for determination of drug efficacy. Cells were obtained from the European Collection of Cell Cultures (ECACC). All cells were cultivated in appropriate media according to supplier recommendations.
Cell Viability assay, 96-well format. Cells were seeded into 96-well cell culture plates at concentrations required to ensure approximately 80% confluence in control (untreated cells) at the end of experiment (0.5×10^4-5×10^4 cell/well).
The sensitivity towards compounds according to the invention was determined using different concentrations of each compound ranging from 0.5 to 100 μM (0.5, 1, 2, 5, 10, 15, 20, 25, 30, 40, 50, 100 μM). Following 48 hours of incubation at 37° C. in a humidified atmosphere containing 5% CO2, the growth-inhibitory effect of compounds was analyzed using Resazurin, according to manufactures instructions.
To ensure good data quality and to minimize impact of pipetting errors, each compounds concentration was assessed based on mean fluorescence intensity from 8 separate wells. Compounds response were quantified by the half maximal inhibitory concentration (IC50) for each particular cell line, and determined by non-linear regression analysis of log-dose/response curves.
Statistical Analysis. Values were expressed as mean±SD or frequencies and proportions. Cell viability curves were determined using four parameter regression line. Differences between groups were determined by unpaired t test, Chi-square, Fisher's exact test or ANOVA, where appropriate. P<0.05 was considered statistically significant. Analysis was performed using GraphPad prism version 5.0 (GraphPad software, San Diego Calif. USA).

`CCOCCN(C)C(C)(C)C#CC(=O)SC` [Example 1, S-methyl 4-[2-ethoxyethyl(methyl)amino]-4-methyl-pent-2-ynethioate] and `C=CCOCCN(C)C(C)(C)C#CC(=O)SC` [Example 2, S-methyl 4-[2-allyloxyethyl(methyl)amino]-4-methyl-pent-2-ynethioate] are within 1.5-fold of each other in IC50: 4.98 µM for the first, 6.5 µM for the second.

`CSC(=O)C#CC(C)(C)N(C)CCOCc1cccc(C)c1` [Example 4, S-methyl 4-methyl-4-[methyl-[2-(m-tolylmethoxy)ethyl]amino]pent-2-ynethioate] and `CSC(=O)C#CC(C)(C)N(C)CCOCc1cccc(Cl)c1` [Example 8, S-methyl 4-[2-[(3-chlorophenyl)methoxy]ethyl-methyl-amino]-4-methyl-pent-2-ynethioate] are within 1.5-fold of each other in IC50: 5.62 µM for the first, 7.07 µM for the second.

Going from `COc1ccc(COCCN(C)C(C)(C)C#CC(=O)SC)cc1` [Example 6, S-methyl 4-[2-[(4-methoxyphenyl)methoxy]ethyl-methyl-amino]-4-methyl-pent-2-ynethioate] to `CSC(=O)C#CC(C)(C)N(C)CCOCc1ccc2ccccc2c1` [Example 19, S-methyl 4-methyl-4-[methyl-[2-(2-naphthylmethoxy)ethyl]amino]pent-2-ynethioate], the IC50 rises from 6.48 µM to 11.3 µM (1.7-fold).

First: COc1ccc(COCCN(C)C(C)(C)C#CC(=O)SC)cc1OC [Example 7, S-methyl 4-[2-[(3,4-dimethoxyphenyl)methoxy]ethyl-methyl-amino]-4-methyl-pent-2-ynethioate]
Second: COc1ccc(C(=O)OCCN(C)C(C)(C)C#CC(=O)SC)cc1OC [Example 22, 2-[(1,1-dimethyl-4-methylsulfanyl-4-oxo-but-2-ynyl)-methylamino]ethyl-3,4-dimethoxybenzoate]
The IC50 of the first is 2.5-fold lower: 6.08 µM for the first, 15.3 µM for the second.

`CSC(=O)C#CC(C)(C)N(C)CCOCc1cccc(F)c1` [Example 9, S-methyl 4-[2-[(3-fluorophenyl)methoxy]ethyl-methyl-amino]-4-methyl-pent-2-ynethioate] and `CSC(=O)C#CC(C)(C)N(C)CCOCc1cccnc1` [Example 11, S-methyl 4-methyl-4-[methyl-[2-(3-pyridylmethoxy)ethyl]amino]pent-2-ynethioate] are within 1.5-fold of each other in IC50: 6.65 µM for the first, 6.56 µM for the second.

`CSC(=O)C#CC(C)(C)N(C)CCOCc1ccccn1` [Example 10, S-methyl 4-methyl-4-[methyl-[2-(2-pyridylmethoxy)ethyl]amino]pent-2-ynethioate] and `CSC(=O)C#CC(C)(C)N(C)CCOCc1ccncc1` [Example 12, S-methyl 4-methyl-4-[methyl-[2-(4-pyridylmethoxy)ethyl]amino]pent-2-ynethioate] are within 1.5-fold of each other in IC50: 5.62 µM for the first, 5.68 µM for the second.

`COC(=O)C#CC(C)(C)N(C)C` [Example 13, methyl 4-(dimethylamino)-4-methyl-pent-2-ynoate] and `CCOC(=O)C#CC(C)(C)N(C)C` [Example 14, ethyl 4-(dimethylamino)-4-methyl-pent-2-ynoate] are within 1.5-fold of each other in IC50: 42.7 µM for the first, 40 µM for the second.

`CN(C)C(C)(C)C#CC(=O)SCC(=O)OC(C)(C)C` [Example 15, tert-butyl 2-((4-(dimethylamino)-4-methylpent-2-ynoyl)thio)acetate] and `CN(C)C(C)(C)C#CC(=O)SCC(=O)O` [Example 16, 2-((4-(dimethylamino)-4-methylpent-2-ynoyl)thio)acetic acid] are within 1.5-fold of each other in IC50: 25 µM for the first, 22.5 µM for the second.

Compared with `CSC(=O)C#CC(C)(C)N(C)CCCCOCc1ccccc1` [Example 17, S-methyl 4-((4-(benzyloxy)butyl)(methyl)amino)-4-methylpent-2-ynethioate], `CSC(=O)C#CC(C)(C)N(C)[C@@H]1CCC[C@H]1OCc1ccccc1` [Example 26, S-methyl 4-(((1R,2R)-2-(benzyloxy)cyclopentyl)(methyl)amino)-4-methylpent-2-ynethioate] is 1.5-fold higher in IC50: 11.3 µM for the first, 17.5 µM for the second. The first is the more potent here.

Going from `CSC(=O)C#CC(C)(C)N(C)CCO` [Example 18, S-methyl 4-((2-hydroxyethyl)(methyl)amino)-4-methylpent-2-ynethioate] to `CSC(=O)C#CC(C)(C)N(C)CCOC(C)=O` [Example 21, 2-[(1,1-dimethyl-4-methylsulfanyl-4-oxo-but-2-ynyl)-methylamino]ethyl acetate], the IC50 rises from 6.75 µM to 12.7 µM (1.9-fold). The first is the more potent here.

`CSC(=O)C#CC(C)(C)N(C)CCOCC1=C(C)CCCC1(C)C` [Example 20, S-methyl 4-methyl-4-[methyl-[2-[(2,6,6-trimethylcyclohexen-1-yl)methoxy]ethyl]amino]pent-2-ynethioate] and `CSC(=O)C#CC(C)(C)N(C)CCOC(=O)N(C)CCN(C)C` [Example 23, S-methyl 2,5,10,11,11-pentamethyl-6-oxo-7-oxa-2,5,10-triazatetradec-12-yne-14-thioate] are within 1.5-fold of each other in IC50: 13.6 µM for the first, 10.6 µM for the second.

`COC[C@@H]1CCCN1C(C)(C)C#CC(=O)SC` [Example 24, (S)—S-methyl 4-(2-(methoxymethyl)pyrrolidin-1-yl)-4-methylpent-2-ynethioate] and `CO[C@@H]1CCN(C(C)(C)C#CC(=O)SC)C1` [Example 25, S-methyl 4-[(3R)-3-methoxypyrrolidin-1-yl]-4-methyl-pent-2-ynethioate] are within 1.5-fold of each other in IC50: 20.5 µM for the first, 16.5 µM for the second.

`CSC(=O)C#CC(C)(C)N1CCC[C@H]1COCc1ccccc1` [Example 27, (S)—S-methyl 4-(2-((benzyloxy)methyl)pyrrolidin-1-yl)-4-methylpent-2-ynethioate] and `CSC(=O)C#CC(C)(C)N1CC[C@@H](OCc2ccccc2)C1` [Example 28, (R)—S-methyl 4-(3-(benzyloxy)pyrrolidin-1-yl)-4-methylpent-2-ynethioate] are within 1.5-fold of each other in IC50: 10.4 µM for the first, 11.8 µM for the second.

System: Raji cells
Assay: Cell cytotoxicity by Rituximab-compound 9 (Alamar Blue)
Conditions: treatment of 50 μg/ml
Experimental: 50 000 viable Raji cells were plated in triplicate. […] The cells were incubated for 48 h at which time 20 μl of Alamar Blue (Thermo Fisher Scientific) was added to each well. The plates were incubated for an additional four hours and the fluorescence intensity read on a plate reader using excitation wavelength of 540 nm and an emission wavelength of 620 nm.

For “Rituximab: Antibody rituximab (Roche), target CD20 [reference compound]”, the “Mean viability of Raji cells in percentage comparing to the non-treated cells” value was 85.50%±2.268%.
